Laboratory results from patent publication US20240368163A1, “COMPOUNDS AND METHODS FOR MODULATING SPLICING” (REMIX THERAPEUTICS INC., priority 2021, published 2024).
pIC50: −log10 of the molar value. Where two headings read alike, the source gives them in different places.

What was measured:
Type in all cases: cell-based, human
[1] = system: HTT; test: Splicing RT-qPCR assay, HTT mRNA canonical junction (CJ) and alternative junction (AJ); conditions: Homo sapiens; for AC50: increase in AJ mRNA
Procedure, shortened: (§1)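 First, A673 cells adhered 24 h, while K562 cells were plated directly. Next, compounds were added as an 11-point 3-fold series from 10 uM for 24 h. Finally, lysates went to RT-qPCR, with 2^(−ΔΔCt) values converted to percentage response.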

[2] = system: Target C; test: Splicing RT-qPCR panel, Target C canonical junction (CJ) mRNA; conditions: Homo sapiens, read-out: Target C IC50 (decrease in CJ mRNA levels)
Procedure, shortened: as §1

[3] = system: MYB; test: Splicing RT-qPCR assay, MYB mRNA canonical junction (CJ) and alternative junction (AJ); conditions: Homo sapiens; for AC50: increase in AJ mRNA
Procedure, shortened: as §1

[4] = system: SMN2; test: Splicing RT-qPCR panel, SMN2 canonical junction (CJ) mRNA; conditions: Homo sapiens, read-out: SMN2 IC50 (decrease in CJ mRNA levels)
Procedure, shortened: as §1

[5] = system: HTT; test: HiBiT protein abundance assay, HTT; conditions: Homo sapiens, K562, 24 h, modified K562 cells
Procedure, shortened: (§2)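 HiBiT knock-in K562, 10000 cells/well, 24 h cpd at 37 °C/5% CO2; 10-pt 3-fold series from 10 μM final; DMSO ≤0.25%. Lytic detection, luminescence read. 4PL fit → IC50 vs DMSO control; unmodified K562 = baseline.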

[6] = system: MYB; test: HiBiT protein abundance assay, MYB; conditions: Homo sapiens, K562, 24 h, modified K562 cells
Procedure, shortened: as §2

[7] = system: Target C; test: HiBiT protein abundance assay, Target C; conditions: Homo sapiens, K562, 24 h, modified K562 cells
Procedure, shortened: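 Luminescence from lytic HiBiT detection, taken after 24 h compound exposure at 37 °C, reports tagged protein abundance in knock-in cells seeded at 10000 cells/well. Doses spanned 10 points, 3-fold steps, top 10 μM final. A four-parameter logistic fit gave the 50% abundance concentration (IC50).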

[8] = 24 h, decrease in CJ mRNA, A673 or K562 cells, 24 hours treatment, RT-qPCR, read-out: HTT CJ IC50
[9] = 24 h, A673 or K562 cells, 24 hours treatment, RT-qPCR
[10] = RT-qPCR panel, canonical junction mRNA, compound concentration having 50% response in CJ decrease, read-out: HTT IC50 (decrease in CJ mRNA levels)
[11] = RT-qPCR panel, canonical junction mRNA, compound concentration having 50% response in CJ decrease
[12] = 24 h, decrease in CJ mRNA, A673 or K562 cells, 24 hours treatment, RT-qPCR, read-out: MYB CJ IC50
[13] = RT-qPCR panel, canonical junction mRNA, compound concentration having 50% response in CJ decrease, read-out: MYB IC50 (decrease in CJ mRNA levels)
[14] = gene panel, CJ qPCR, protocol of Example 142, read-out: HTT IC50 (decrease in CJ mRNA levels)
[15] = gene panel, CJ qPCR, protocol of Example 142
[16] = gene panel, CJ qPCR, protocol of Example 142, read-out: MYB IC50 (decrease in CJ mRNA levels)

Structure (SMILES)	pIC50 [1, 8]	AC50 [1, 9] [µM]	pIC50 [1, 10]	pIC50 [2, 11]	pIC50 [3, 12]	AC50 [3, 9] [µM]	pIC50 [3, 13]	pIC50 [4, 11]	pIC50 ([5]; Table 13A)	pIC50 ([6]; Table 13A)	pIC50 ([7]; Table 13A)	pIC50 [1, 14]	pIC50 [2, 15]	pIC50 [3, 16]	pIC50 [4, 15]	pIC50 ([5]; Table 13B)	pIC50 ([6]; Table 13B)	pIC50 ([7]; Table 13B)
CC1(C)CC(Oc2ccc(-c3ccc(-c4cn[nH]c4)c4cn[nH]c34)nn2)CCN1 (stereo not shown) [Compound 220]	5.00 to 6.00	> 10	5.00 to 6.00	< 5.00	5.00 to 6.00	> 10	5.00 to 6.00	6.00 to 7.00	5.00 to 6.00	5.00 to 6.00	< 5.00							
c1cnn(-c2ccc(-c3cnc(N4CCNC(C5CC5)C4)nn3)c3cn[nH]c23)c1 (stereo not shown) [Compound 511]			> 7.00	6.00 to 7.00			5.00 to 6.00	6.00 to 7.00	6.00 to 7.00	5.00 to 6.00	6.00 to 7.00							
c1nc2c(-c3cn[nH]c3)ccc(-c3ccc(N4CC5(CCCNC5)C4)nn3)c2s1 [Compound 187]	< 5.00	> 10	< 5.00	< 5.00	< 5.00	> 10	< 5.00	5.00 to 6.00	5.00 to 6.00	5.00 to 6.00	< 5.00							
Cc1cc(-c2ccc(-c3ccc(O[C@@H]4C[C@H]5CC[C@@H](C4)N5)nn3)c3scnc23)ccn1 [Compound 349]	5.00 to 6.00	1 to 10	5.00 to 6.00	5.00 to 6.00	5.00 to 6.00	> 10	5.00 to 6.00	> 7.00	6.00 to 7.00	6.00 to 7.00	5.00 to 6.00							
COc1cc(-c2ccc(N3CCC(NC(C)(C)C)C3)nn2)ncc1-n1cccn1 (stereo not shown) [Compound 972]												6.00 to 7.00	5.00 to 6.00	5.00 to 6.00	6.00 to 7.00	6.00 to 7.00	5.00 to 6.00	5.00 to 6.00
CN(c1ccc(-c2ccc(-c3ccc(=O)[nH]c3)c3scnc23)nn1)C1CC(C)(C)NC(C)(C)C1 [Compound 180]	6.00 to 7.00	0.1 to 1	6.00 to 7.00	6.00 to 7.00	6.00 to 7.00	0.1 to 1	6.00 to 7.00	6.00 to 7.00	6.00 to 7.00	6.00 to 7.00	6.00 to 7.00							
c1nc2c(-c3cn[nH]c3)ccc(-c3ccc(N4CCCC5(CNC5)C4)nn3)c2s1 [Compound 189]	< 5.00	> 10	< 5.00	< 5.00	< 5.00	> 10	< 5.00	< 5.00	< 5.00	< 5.00	< 5.00							
c1nc2c(-c3cn[nH]c3)ccc(-c3ccc(C4CCNCC4)nn3)c2s1 [Compound 206]	5.00 to 6.00	> 10	5.00 to 6.00	< 5.00	5.00 to 6.00	0.1 to 1	5.00 to 6.00	> 7.00	5.00 to 6.00	5.00 to 6.00	< 5.00							
CN(c1ccc(-c2ccc(-c3cnn(C)c(=O)c3)c3scnc23)nn1)C1CC(C)(C)NC(C)(C)C1 [Compound 211]	6.00 to 7.00	0.1 to 1	6.00 to 7.00	6.00 to 7.00	6.00 to 7.00	0.1 to 1	6.00 to 7.00	6.00 to 7.00	6.00 to 7.00	6.00 to 7.00	6.00 to 7.00							
CN(c1ncc(-c2ccc(-c3cn[nH]c3)c3ncsc23)nn1)[C@@H]1C[C@]2(C)CC[C@](C)(C1)N2 [Compound 425, (1S,5R)—N,1,5-trimethyl-N-[6-[4-(1H-pyrazol-4-yl)-1,3-benzothiazol-7-yl]-1,2,4-triazin-3-yl]-8-azabicyclo [3.2.1] octan-3-amine]	6.00 to 7.00	0.1 to 1	6.00 to 7.00	6.00 to 7.00	5.00 to 6.00	> 10	5.00 to 6.00	5.00 to 6.00	6.00 to 7.00	5.00 to 6.00	6.00 to 7.00							
COc1nc(-c2ccc(N(C)C3CC(C)(C)NC(C)(C)C3)nc2)ccc1-n1cccn1 [Compound 995]												5.00 to 6.00	< 5.00	< 5.00	5.00 to 6.00	5.00 to 6.00	5.00 to 6.00	5.00 to 6.00
CN(c1ccc(-c2ccc(-c3cnn(C)n3)c3cn[nH]c23)nn1)C1CCNCC1 [Compound 315, N-methyl-6-[4-(2-methyl-1,2,3-triazol-4-yl)-1H-indazol-7-yl]-N-(piperidin-4-yl)pyridazin-3-amine]	5.00 to 6.00	1 to 10	5.00 to 6.00	< 5.00	5.00 to 6.00	1 to 10	5.00 to 6.00	6.00 to 7.00	6.00 to 7.00	6.00 to 7.00	< 5.00							
CN(c1ccc(-c2ccc(-c3ccc(=O)n(C)c3)c3ncsc23)nn1)C1CC(C)(C)NC(C)(C)C1 [Compound 281]	< 5.00	> 10	< 5.00	< 5.00	5.00 to 6.00	> 10	5.00 to 6.00	6.00 to 7.00	5.00 to 6.00	5.00 to 6.00	5.00 to 6.00							
CN(c1ncc(-c2ccc(-c3cn[nH]c3)c3ncsc23)nn1)[C@H]1C[C@]2(C)CC[C@](C)(C1)N2 [Compound 424, (1S,5R)—N,1,5-trimethyl-N-[6-[4-(1H-pyrazol-4-yl)-1,3-benzothiazol-7-yl]-1,2,4-triazin-3-yl]-8-azabicyclo [3.2.1] octan-3-amine]		< 0.1	> 7.00	> 7.00	6.00 to 7.00	0.1 to 1	6.00 to 7.00	6.00 to 7.00	> 7.00	6.00 to 7.00	> 7.00							
[2H]C([2H])([2H])N(c1ccc(-c2ccc(-c3cn[nH]c3)c3cn[nH]c23)nn1)C1CC(C)(C)NC(C)(C)C1 [Compound 292]	6.00 to 7.00	0.1 to 1	6.00 to 7.00	5.00 to 6.00	6.00 to 7.00	1 to 10	6.00 to 7.00	> 7.00	6.00 to 7.00	6.00 to 7.00	6.00 to 7.00							
c1nc2c(-c3cn[nH]c3)ccc(-c3ccc(N4CCC45CCCNC5)nn3)c2s1 (stereo not shown) [Compound 276]	5.00 to 6.00	1 to 10	5.00 to 6.00	5.00 to 6.00	5.00 to 6.00	1 to 10	5.00 to 6.00	5.00 to 6.00	5.00 to 6.00	5.00 to 6.00	5.00 to 6.00							
CN1CCC2(CC1)CCN2c1ccc(-c2ccc(-c3cn[nH]c3)c3ncsc23)nn1 [Compound 289]	< 5.00	> 10	< 5.00	< 5.00	5.00 to 6.00	> 10	5.00 to 6.00	< 5.00	5.00 to 6.00	6.00 to 7.00	< 5.00							
c1cnn(-c2ccc(-c3ccc(O[C@@H]4C[C@H]5CC[C@@H](C4)N5)nn3)c3scnc23)c1 [Compound 334]	6.00 to 7.00	1 to 10	6.00 to 7.00	< 5.00	< 5.00	1 to 10	< 5.00	6.00 to 7.00	6.00 to 7.00	6.00 to 7.00	5.00 to 6.00							
CCNC1CCN(c2ccc(-c3ccc(-c4cn[nH]c4)c4ncsc34)nn2)CC1 [Compound 410, N-ethyl-1-[6-[4-(1H-pyrazol-4-yl)-1,3-benzothiazol-7-yl]pyridazin-3-yl]piperidin-4-amine]	< 5.00	> 10	< 5.00	< 5.00	5.00 to 6.00	> 10	5.00 to 6.00	5.00 to 6.00	5.00 to 6.00	5.00 to 6.00	5.00 to 6.00							
